According to PMC4116505, “HER2-signaling pathway, JNK and ERKs kinases, and cancer stem-like cells are targets of Bozepinib” (Oncotarget, 2014):

Assays:
VEGFR-2 [1] = molecular target: T1, VEGFR-2 (Homo sapiens, UniProt P35968); assay: 36-kinase panel, residual activity at […]; format: biochemical
T1 construct: gene KDR

AKT2 [2] = molecular target: T2, AKT2 (Homo sapiens, UniProt P31751); assay: 36-kinase panel, residual activity at […]; format: biochemical
HER2 [3] = molecular target: T3, HER2 (Homo sapiens, UniProt P04626); assay: 36-kinase panel, residual activity at […]; p-HER2 loss in SKBR-3 cells by western blot; format: biochemical
T3 construct: gene ERBB2
T3 sequence (P04626 23-1255): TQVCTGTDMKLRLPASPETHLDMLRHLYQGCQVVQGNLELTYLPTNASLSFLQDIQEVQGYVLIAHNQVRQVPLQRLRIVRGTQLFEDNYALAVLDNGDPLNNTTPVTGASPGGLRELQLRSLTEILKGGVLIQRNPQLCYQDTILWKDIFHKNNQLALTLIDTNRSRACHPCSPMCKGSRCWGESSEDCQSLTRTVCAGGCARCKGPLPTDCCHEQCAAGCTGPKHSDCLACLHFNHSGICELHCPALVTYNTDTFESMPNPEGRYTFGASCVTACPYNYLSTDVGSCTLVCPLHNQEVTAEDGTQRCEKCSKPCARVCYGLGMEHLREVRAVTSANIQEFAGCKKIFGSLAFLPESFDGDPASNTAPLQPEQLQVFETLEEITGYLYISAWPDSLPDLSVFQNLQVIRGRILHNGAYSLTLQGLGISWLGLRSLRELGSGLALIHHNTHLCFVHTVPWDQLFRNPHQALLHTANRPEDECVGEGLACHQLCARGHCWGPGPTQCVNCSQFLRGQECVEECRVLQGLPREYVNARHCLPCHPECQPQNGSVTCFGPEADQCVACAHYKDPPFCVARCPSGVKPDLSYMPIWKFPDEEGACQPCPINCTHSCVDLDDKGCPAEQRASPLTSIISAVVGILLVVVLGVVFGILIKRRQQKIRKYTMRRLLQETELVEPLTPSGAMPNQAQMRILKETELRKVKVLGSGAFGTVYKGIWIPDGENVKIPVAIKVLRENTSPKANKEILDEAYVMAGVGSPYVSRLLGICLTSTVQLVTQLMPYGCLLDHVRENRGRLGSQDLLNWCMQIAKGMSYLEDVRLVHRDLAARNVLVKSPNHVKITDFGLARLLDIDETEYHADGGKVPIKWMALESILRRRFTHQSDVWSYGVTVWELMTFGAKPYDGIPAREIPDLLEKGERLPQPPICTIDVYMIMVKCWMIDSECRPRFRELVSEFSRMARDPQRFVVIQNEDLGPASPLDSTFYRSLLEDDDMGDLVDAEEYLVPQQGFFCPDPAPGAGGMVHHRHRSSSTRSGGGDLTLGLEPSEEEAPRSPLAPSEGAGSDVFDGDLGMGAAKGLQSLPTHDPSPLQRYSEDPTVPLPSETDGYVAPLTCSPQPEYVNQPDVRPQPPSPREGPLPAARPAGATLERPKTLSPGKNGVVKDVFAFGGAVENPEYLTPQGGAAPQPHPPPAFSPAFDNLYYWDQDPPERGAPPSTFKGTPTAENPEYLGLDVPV

VEGFR-1 [4] = molecular target: T4, VEGFR-1 (Homo sapiens, UniProt P17948); assay: 36-kinase panel, residual activity at […]; format: biochemical
T4 construct: gene FLT1

VEGFR-3 [5] = molecular target: T5, VEGFR-3 (Homo sapiens, UniProt P35916); assay: 36-kinase panel, residual activity at […]; format: biochemical
T5 construct: gene FLT4
T5 sequence (P35916 25-1363): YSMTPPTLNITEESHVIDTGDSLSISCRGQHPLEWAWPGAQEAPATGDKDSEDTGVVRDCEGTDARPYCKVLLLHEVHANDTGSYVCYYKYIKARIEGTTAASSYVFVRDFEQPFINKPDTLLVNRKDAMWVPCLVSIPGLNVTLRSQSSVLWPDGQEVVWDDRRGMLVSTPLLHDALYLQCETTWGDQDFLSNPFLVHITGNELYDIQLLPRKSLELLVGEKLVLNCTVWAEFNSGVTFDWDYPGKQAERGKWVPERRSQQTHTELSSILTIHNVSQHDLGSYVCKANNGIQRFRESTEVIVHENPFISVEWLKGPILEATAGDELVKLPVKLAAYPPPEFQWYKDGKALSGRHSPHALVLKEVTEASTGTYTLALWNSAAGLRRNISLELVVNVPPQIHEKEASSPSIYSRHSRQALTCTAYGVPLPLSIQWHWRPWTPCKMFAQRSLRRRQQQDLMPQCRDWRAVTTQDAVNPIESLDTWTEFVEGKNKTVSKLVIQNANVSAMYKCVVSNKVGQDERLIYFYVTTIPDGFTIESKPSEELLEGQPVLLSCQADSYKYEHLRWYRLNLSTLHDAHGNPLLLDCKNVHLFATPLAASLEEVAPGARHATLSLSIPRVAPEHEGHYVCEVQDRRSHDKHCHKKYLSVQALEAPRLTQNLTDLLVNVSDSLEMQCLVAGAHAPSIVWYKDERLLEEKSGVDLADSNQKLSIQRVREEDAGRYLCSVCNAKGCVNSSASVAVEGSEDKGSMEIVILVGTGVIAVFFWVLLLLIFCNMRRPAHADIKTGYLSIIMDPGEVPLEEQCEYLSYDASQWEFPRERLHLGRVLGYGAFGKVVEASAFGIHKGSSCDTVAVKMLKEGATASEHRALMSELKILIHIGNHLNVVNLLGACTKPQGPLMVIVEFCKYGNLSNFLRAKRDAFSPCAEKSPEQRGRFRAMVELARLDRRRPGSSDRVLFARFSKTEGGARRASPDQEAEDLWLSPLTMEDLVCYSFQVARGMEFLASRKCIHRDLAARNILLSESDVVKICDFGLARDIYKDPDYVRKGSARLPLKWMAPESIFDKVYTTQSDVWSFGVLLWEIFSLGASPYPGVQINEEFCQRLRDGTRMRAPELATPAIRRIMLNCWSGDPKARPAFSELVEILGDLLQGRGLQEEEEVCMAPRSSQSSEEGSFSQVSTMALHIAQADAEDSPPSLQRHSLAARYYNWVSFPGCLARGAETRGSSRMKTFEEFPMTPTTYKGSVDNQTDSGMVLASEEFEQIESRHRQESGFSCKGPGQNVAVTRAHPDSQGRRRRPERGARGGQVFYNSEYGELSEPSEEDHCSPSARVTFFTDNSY

AKT1 = AKT1 (Homo sapiens, UniProt P31749); assay: biochemical; set-up: protein kinase panel (36 kinases), residual activity at two concentrations, singlicate
Method: (§1) The kinase inhibition profile of Bozepinib was determined using a panel of 36 protein kinases (Supplementary Table S1). Residual activity values were measured by testing each compound at two concentrations (5×10^−5 M and 5×10^−6 M) in singlicate for each kinase assay. Detailed methods for kinome analyses are provided in Supplementary Materials and Methods. […] Each experiment was repeated three times. Kinase Inhibition Assays Bozepinib was dissolved in volumes of 100% DMSO to reach stock concentrations of 5×10^-3 M/100% DMSO and 5×10^-4 M/100% DMSO, respectively. In the process, the 5×10^-3 M/100% DMSO and 5×10^-4 M/100% DMSO solutions were diluted with water to 5×10^-4 M/10% DMSO and 5×10^-5 M/10% DMSO in a 96 well microtiter plate directly before use. For every kinase, 5 μl from each of the 5×10^-4 M/10% DMSO and 5×10^-5 M/10% DMSO compound solutions were transferred into the assay plates. The To study the effect of Bozepinib on cancer proliferation pathways, we carried out an ex vivo multikinase screening assay (n=36) using 5μM and 50μM (Supplementary Table S3). […] In order to analyze whether Bozepinib inhibits the HER2 signaling pathways in breast cancer cells, we treated the HER2 positive SKBR-3 cell line with 5 μM of Bozepinib and we analyzed the expression and activation of proteins involved in HER2 signaling at different times post-treatment by western blot analysis (Fig. 1A). […] Moreover, we also detected both the inhibition of ERKs and JNK phosphorylation in MCF-7 and MDA-MB 468 breast cancer cell lines, that was more notable in MCF-7 cells at 4 hours post-treatment and in MDA-MB 468 cell line after 8 hours post-treatment (Fig. 1B and 1C).

AKT2 [6] = molecular target: T2, AKT2; assay: biochemical; set-up: protein kinase panel (36 kinases), residual activity at two concentrations, singlicate
Method: as §1

AKT3 = AKT3 (Homo sapiens, UniProt Q9Y243); assay: biochemical; set-up: protein kinase panel (36 kinases), residual activity at two concentrations, singlicate
Method: as §1

CDK6/CycD1 = CDK6/CycD1 (Homo sapiens, UniProt Q00534); assay: biochemical; set-up: protein kinase panel (36 kinases), residual activity at two concentrations, singlicate
Method: as §1

CDK7/CycH/MAT1 = CDK7/CycH/MAT1 (Homo sapiens, UniProt P50613); assay: biochemical; set-up: protein kinase panel (36 kinases), residual activity at two concentrations, singlicate
Method: as §1

CDK8/CycC = CDK8/CycC (Homo sapiens, UniProt P49336); assay: biochemical; set-up: protein kinase panel (36 kinases), residual activity at two concentrations, singlicate
Method: as §1

CDK9/CycT = CDK9/CycT (Homo sapiens, UniProt P50750); assay: biochemical; set-up: protein kinase panel (36 kinases), residual activity at two concentrations, singlicate
Method: as §1

EGFR = EGFR (Homo sapiens, UniProt P00533); assay: biochemical; set-up: protein kinase panel (36 kinases), residual activity at two concentrations, singlicate
Method: as §1

ERK2 = molecular target: T6, ERK2 (Homo sapiens, UniProt P28482); assay: biochemical; set-up: protein kinase panel (36 kinases), residual activity at two concentrations, singlicate
T6 construct: gene MAPK1
Method: as §1

HER2 [7] = molecular target: T3, HER2; assay: biochemical; set-up: protein kinase panel (36 kinases), residual activity at two concentrations, singlicate
Method: as §1

IKK- alpha = molecular target: T7, IKK- alpha (Homo sapiens, UniProt O15111); assay: biochemical; set-up: protein kinase panel (36 kinases), residual activity at two concentrations, singlicate
T7 construct: gene CHUK
Method: as §1

IKK-beta = molecular target: T8, IKK-beta (Homo sapiens, UniProt O14920); assay: biochemical; set-up: protein kinase panel (36 kinases), residual activity at two concentrations, singlicate
T8 construct: gene IKBKB
Method: as §1

IKK-epsilon = molecular target: T9, IKK-epsilon (Homo sapiens, UniProt Q14164); assay: biochemical; set-up: protein kinase panel (36 kinases), residual activity at two concentrations, singlicate
T9 construct: gene IKBKE
Method: as §1

JAK3 = JAK3 (Homo sapiens, UniProt P52333); assay: biochemical; set-up: protein kinase panel (36 kinases), residual activity at two concentrations, singlicate
Method: as §1

JNK1 = molecular target: T10, JNK1 (Homo sapiens, UniProt P45983); assay: biochemical; set-up: protein kinase panel (36 kinases), residual activity at two concentrations, singlicate
T10 construct: gene MAPK8
Method: as §1

JNK2 = molecular target: T11, JNK2 (Homo sapiens, UniProt P45984); assay: biochemical; set-up: protein kinase panel (36 kinases), residual activity at two concentrations, singlicate
T11 construct: gene MAPK9
Method: as §1

JNK3 = molecular target: T12, JNK3 (Homo sapiens, UniProt P53779); assay: biochemical; set-up: protein kinase panel (36 kinases), residual activity at two concentrations, singlicate
T12 construct: gene MAPK10
Method: as §1

P38-alpha = molecular target: T13, P38-alpha (Homo sapiens, UniProt Q16539); assay: biochemical; set-up: protein kinase panel (36 kinases), residual activity at two concentrations, singlicate
T13 construct: gene MAPK14
Method: as §1

PDK1 = molecular target: T14, PDK1 (Homo sapiens, UniProt O15530); assay: biochemical; set-up: protein kinase panel (36 kinases), residual activity at two concentrations, singlicate
T14 construct: gene PDPK1
Method: as §1

PKC-alpha = molecular target: T15, PKC-alpha (Homo sapiens, UniProt P17252); assay: biochemical; set-up: protein kinase panel (36 kinases), residual activity at two concentrations, singlicate
T15 construct: gene PRKCA
Method: as §1

RET = RET (Homo sapiens, UniProt P07949); assay: biochemical; set-up: protein kinase panel (36 kinases), residual activity at two concentrations, singlicate
Method: as §1

STK23 = molecular target: T16, STK23 (Homo sapiens, UniProt Q9UPE1); assay: biochemical; set-up: protein kinase panel (36 kinases), residual activity at two concentrations, singlicate
T16 construct: gene SRPK3
T16 sequence (Q9UPE1 whole entry): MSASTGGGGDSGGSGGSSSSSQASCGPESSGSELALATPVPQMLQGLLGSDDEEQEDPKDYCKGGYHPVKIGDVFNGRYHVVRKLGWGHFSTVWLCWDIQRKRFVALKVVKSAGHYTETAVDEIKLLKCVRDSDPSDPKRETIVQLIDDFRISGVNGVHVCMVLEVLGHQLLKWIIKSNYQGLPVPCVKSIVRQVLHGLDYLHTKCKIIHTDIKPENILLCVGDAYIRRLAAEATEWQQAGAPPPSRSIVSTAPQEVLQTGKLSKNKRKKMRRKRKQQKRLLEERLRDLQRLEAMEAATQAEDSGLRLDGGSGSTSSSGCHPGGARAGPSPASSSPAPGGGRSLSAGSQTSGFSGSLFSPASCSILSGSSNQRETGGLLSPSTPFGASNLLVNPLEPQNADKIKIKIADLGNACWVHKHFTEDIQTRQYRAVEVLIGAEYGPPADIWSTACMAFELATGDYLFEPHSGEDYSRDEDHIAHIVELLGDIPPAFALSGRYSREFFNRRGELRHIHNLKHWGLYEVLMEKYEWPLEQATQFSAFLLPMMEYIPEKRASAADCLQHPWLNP
Method: as §1

STK33 = STK33 (Homo sapiens, UniProt Q9BYT3); assay: biochemical; set-up: protein kinase panel (36 kinases), residual activity at two concentrations, singlicate
Method: as §1

VEGFR-1 [8] = molecular target: T4, VEGFR-1; assay: biochemical; set-up: protein kinase panel (36 kinases), residual activity at two concentrations, singlicate
Method: as §1

VEGFR-2 [9] = molecular target: T1, VEGFR-2; assay: biochemical; set-up: protein kinase panel (36 kinases), residual activity at two concentrations, singlicate
Method: as §1

VEGFR-3 [10] = molecular target: T5, VEGFR-3; assay: biochemical; set-up: protein kinase panel (36 kinases), residual activity at two concentrations, singlicate
Method: as §1

[11] = read-out: Bozepinib 5 µM, residual activity %
[12] = read-out: Bozepinib 50 µM, residual activity %

T1 sequence (P35968 20-1356): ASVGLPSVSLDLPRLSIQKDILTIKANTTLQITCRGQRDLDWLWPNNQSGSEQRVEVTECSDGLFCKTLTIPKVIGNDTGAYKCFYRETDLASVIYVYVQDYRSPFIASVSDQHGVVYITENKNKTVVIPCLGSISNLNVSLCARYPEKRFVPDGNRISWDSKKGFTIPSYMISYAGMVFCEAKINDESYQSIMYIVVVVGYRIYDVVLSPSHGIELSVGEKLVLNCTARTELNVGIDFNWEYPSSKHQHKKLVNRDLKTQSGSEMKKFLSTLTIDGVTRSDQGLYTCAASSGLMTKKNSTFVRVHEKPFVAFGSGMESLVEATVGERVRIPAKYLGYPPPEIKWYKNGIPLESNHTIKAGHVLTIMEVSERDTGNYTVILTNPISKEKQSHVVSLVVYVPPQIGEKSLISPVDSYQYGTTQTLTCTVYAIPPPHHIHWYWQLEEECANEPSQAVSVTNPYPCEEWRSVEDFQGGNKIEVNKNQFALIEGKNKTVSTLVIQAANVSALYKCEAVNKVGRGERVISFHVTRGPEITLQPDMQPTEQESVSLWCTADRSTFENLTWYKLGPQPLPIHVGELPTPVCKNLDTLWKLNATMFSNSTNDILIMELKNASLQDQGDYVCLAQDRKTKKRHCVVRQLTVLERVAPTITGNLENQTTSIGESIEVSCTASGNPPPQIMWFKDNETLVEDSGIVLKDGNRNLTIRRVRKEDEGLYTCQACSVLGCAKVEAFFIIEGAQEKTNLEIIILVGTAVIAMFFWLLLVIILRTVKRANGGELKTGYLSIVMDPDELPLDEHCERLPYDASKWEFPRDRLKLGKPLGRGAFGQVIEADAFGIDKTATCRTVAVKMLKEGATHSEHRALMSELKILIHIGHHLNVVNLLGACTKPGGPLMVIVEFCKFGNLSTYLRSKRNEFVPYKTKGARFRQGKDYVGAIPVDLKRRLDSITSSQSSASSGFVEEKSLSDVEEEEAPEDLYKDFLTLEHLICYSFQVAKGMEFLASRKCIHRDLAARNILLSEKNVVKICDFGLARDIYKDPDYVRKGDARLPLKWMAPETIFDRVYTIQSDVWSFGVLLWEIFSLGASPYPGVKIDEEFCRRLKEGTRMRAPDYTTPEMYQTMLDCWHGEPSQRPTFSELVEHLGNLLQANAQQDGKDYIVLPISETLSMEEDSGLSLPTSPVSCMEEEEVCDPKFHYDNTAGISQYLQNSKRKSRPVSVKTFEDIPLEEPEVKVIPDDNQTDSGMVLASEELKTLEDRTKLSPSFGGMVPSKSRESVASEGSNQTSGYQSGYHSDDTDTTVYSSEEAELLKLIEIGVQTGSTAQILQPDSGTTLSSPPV
T2 sequence (P31751 whole entry): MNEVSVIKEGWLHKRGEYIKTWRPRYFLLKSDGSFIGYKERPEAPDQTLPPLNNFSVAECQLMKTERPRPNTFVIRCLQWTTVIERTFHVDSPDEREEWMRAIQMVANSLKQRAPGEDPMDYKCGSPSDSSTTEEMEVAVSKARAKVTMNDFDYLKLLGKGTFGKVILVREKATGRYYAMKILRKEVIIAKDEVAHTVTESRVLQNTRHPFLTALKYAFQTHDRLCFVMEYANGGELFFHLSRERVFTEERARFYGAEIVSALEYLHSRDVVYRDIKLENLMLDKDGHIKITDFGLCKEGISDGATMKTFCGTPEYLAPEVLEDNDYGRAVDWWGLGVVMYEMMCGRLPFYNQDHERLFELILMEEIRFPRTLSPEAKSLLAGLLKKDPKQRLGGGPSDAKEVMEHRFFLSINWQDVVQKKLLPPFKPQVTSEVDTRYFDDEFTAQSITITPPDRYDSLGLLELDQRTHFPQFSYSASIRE

With `O=[N+]([O-])c1ccc(S(=O)(=O)N2CC(n3cnc4c(Cl)nc(Cl)nc43)OCc3ccccc32)cc1` (racemic) [Bozepinib, (RS)-2,6-dichloro-9-[1-(p-nitrobenzenesulfonyl)-1,2,3,5-tetrahydro-4,1-benzoxazepin-3-yl]-9H-purine] the “36-kinase panel, residual activity at 5 and 50 μM” value (VEGFR-2 [1]) was “showed inhibitory effects against VEGFR-1, VEGFR-2 and VEGFR-3 in the kinome assay”, the “36-kinase panel, residual activity at 5 and 50 μM” value (AKT2 [2]) was “HER2, AKT2 and VEGF receptors were considerably inhibited in the screening (Supplementary Table S3)” and the “36-kinase panel, residual activity at 5 and 50 μM; p-HER2 loss in SKBR-3 cells b” value (HER2 [3]) was “HER2, AKT2 and VEGF receptors were considerably inhibited in the screening (Supplementary Table S3)”. The “36-kinase panel, residual activity at 5 and 50 μM” value (VEGFR-1 [4]) was “showed inhibitory effects against VEGFR-1, VEGFR-2 and VEGFR-3 in the kinome assay”, the “36-kinase panel, residual activity at 5 and 50 μM” value (VEGFR-3 [5]) was “showed inhibitory effects against VEGFR-1, VEGFR-2 and VEGFR-3 in the kinome assay” and the remaining activity at 5 µM (AKT1; [11]) was 96%. It also gave a remaining activity at 50 µM (AKT1; [12]) of 78%, a remaining activity at 5 µM (AKT2 [6]; [11]) of 100% and a remaining activity at 50 µM (AKT2 [6]; [12]) of 43%. For the same compound, the remaining activity at 5 µM (AKT3; [11]) was 98%, the remaining activity at 50 µM (AKT3; [12]) was 88% and the remaining activity at 5 µM (CDK6/CycD1; [11]) was 95%. For the same compound, the remaining activity at 50 µM (CDK6/CycD1; [12]) was 64%, the remaining activity at 5 µM (CDK7/CycH/MAT1; [11]) was 96% and the remaining activity at 50 µM (CDK7/CycH/MAT1; [12]) was 69%. The remaining activity at 5 µM (CDK8/CycC; [11]) was 109%, the remaining activity at 50 µM (CDK8/CycC; [12]) was 72% and the remaining activity at 5 µM (CDK9/CycT; [11]) was 102%. For the same compound, the remaining activity at 50 µM (CDK9/CycT; [12]) was 69%, the remaining activity at 5 µM (EGFR; [11]) was 84% and the remaining activity at 50 µM (EGFR; [12]) was 17%. It also gave a remaining activity at 5 µM (ERK2; [11]) of 104%, a remaining activity at 50 µM (ERK2; [12]) of 50% and a remaining activity at 5 µM (HER2 [7]; [11]) of 101%. It also gave a remaining activity at 50 µM (HER2 [7]; [12]) of 25%, a remaining activity at 5 µM (IKK- alpha; [11]) of 104% and a remaining activity at 50 µM (IKK- alpha; [12]) of 51%. It also gave a remaining activity at 5 µM (IKK-beta; [11]) of 113%, a remaining activity at 50 µM (IKK-beta; [12]) of 78% and a remaining activity at 5 µM (IKK-epsilon; [11]) of 113%. For the same compound, the remaining activity at 50 µM (IKK-epsilon; [12]) was 71%, the remaining activity at 5 µM (JAK3; [11]) was 94% and the remaining activity at 50 µM (JAK3; [12]) was 43%. The remaining activity at 5 µM (JNK1; [11]) was 45%, the remaining activity at 50 µM (JNK1; [12]) was 29% and the remaining activity at 5 µM (JNK2; [11]) was 77%. The remaining activity at 50 µM (JNK2; [12]) was 37%, the remaining activity at 5 µM (JNK3; [11]) was 81% and the remaining activity at 50 µM (JNK3; [12]) was 43%. The remaining activity at 5 µM (P38-alpha; [11]) was 115%, the remaining activity at 50 µM (P38-alpha; [12]) was 57% and the remaining activity at 5 µM (PDK1; [11]) was 41%. The remaining activity at 50 µM (PDK1; [12]) was 27%, the remaining activity at 5 µM (PKC-alpha; [11]) was 86% and the remaining activity at 50 µM (PKC-alpha; [12]) was 24%. It also gave a remaining activity at 5 µM (RET; [11]) of 79%, a remaining activity at 50 µM (RET; [12]) of 14% and a remaining activity at 5 µM (STK23; [11]) of 95%. The remaining activity at 50 µM (STK23; [12]) was 89%, the remaining activity at 5 µM (STK33; [11]) was 102% and the remaining activity at 50 µM (STK33; [12]) was 72%. For the same compound, the remaining activity at 5 µM (VEGFR-1 [8]; [11]) was 91%, the remaining activity at 50 µM (VEGFR-1 [8]; [12]) was 18% and the remaining activity at 5 µM (VEGFR-2 [9]; [11]) was 82%. For the same compound, the remaining activity at 50 µM (VEGFR-2 [9]; [12]) was 13%, the remaining activity at 5 µM (VEGFR-3 [10]; [11]) was 84% and the remaining activity at 50 µM (VEGFR-3 [10]; [12]) was 13%.
